Laboratory results taken from patent US4151278A, “Process for the preparation of an extract of Teucrium marum used in particular in therapy” (Institut de Recherches Chimiques et Biologiques Appliquees, priority 1976, dated 1979).

Test system: spontaneous respiration in male guinea pigs
Assay: Analeptic respiratory activity after morphine depression
Type: in vivo
Settings: 20 mg/kg intravenously; reference; before morphine 58, 20 minutes after morphine 29
Experimental: The spontaneous respiration in male guinea pigs, weighing 400-600 g, which have been anaesthetized, is recorded by means of a tracheal probe connected to an electronic recorder.
In a first stage, the respiration is depressed by an intravenous injection of 10 mg/kg of morphine. In a second stage, 20 minutes after the morphine, the product to be studied is injected intravenously.
The respiratory rhythm is recorded before the injection of morphine, and before and 1 minute after the injection of the product to be studied.

Cn1c(=O)c2[nH]cnc2n(C)c1=O [theophylline]
respiratory rhythm 1 minute after administration of the product: 47 pulsations/minute
